In brackets after ≈: the same amount, converted by molar mass.
What was measured:
Assay type in all cases: cell-based
E. faecalis (ATCC 29212) = assay: Antibacterial susceptibility testing (MIC, broth microdilution or agar dilution), E. faecalis; settings: Enterococcus faecalis, ATCC29212; read-out: E. faecalis (ATCC 29212) minimal inhibitory concentration (MIC)
Protocol: (§1) Compounds of the invention were tested for antimicrobial activity by susceptibility testing in liquid or on solid media. MICs for compounds against each strain were determined by the broth microdilution or agar dilution method according to the guidelines of the Clinical Laboratories and Standards Institute, formerly the National Committee for Clinical Laboratory Standards (Clinical Laboratories and Standards Institute. Methods for Dilution Antimicrobial Susceptibility Tests for Bacteria That Grow Aerobically; Approved Standard—Seventh Edition. Document M7-A7. CLSI, Wayne, Pa., 2006; Clinical Laboratories and Standards Institute. The Gram positive bacterial strains tested include S. aureus (Staphylococcus aureus (Isolate ID ATCC 29213)), E. faecalis (Enterococcus faecalis (Isolate ID ATCC 29212)) and S. pyogenes (Streptococcus pyogenes (Isolate ID ATCC 51339)). The Gram negative bacterial strains tested include H. influenzae (Haemophilus influenzae (Isolate ID ATCC 49247)).

S. aureus (ATCC 29213) = assay: Antibacterial susceptibility testing (MIC, broth microdilution or agar dilution), S. aureus; settings: Staphylococcus aureus, ATCC29213; read-out: S. aureus (ATCC 29213) minimal inhibitory concentration (MIC)
Protocol: as §1

S. pyogenes (ATCC 51339) = assay: Antibacterial susceptibility testing (MIC, broth microdilution or agar dilution), S. pyogenes; settings: Streptococcus pyogenes, ATCC51339; read-out: S. pyogenes (ATCC 51339) minimal inhibitory concentration (MIC)
Protocol: as §1

Structure (SMILES)	MIC (E. faecalis (ATCC 29212)) [µg/mL]	MIC (S. aureus (ATCC 29213)) [µg/mL]	MIC (S. pyogenes (ATCC 51339)) [µg/mL]
CCNC(=O)Nc1cc(Nc2ccccc2)c(C(=O)Nc2ccnc(C(=O)OC)c2)cn1 [Compound 21, methyl 4-(6-(3-ethylureido)-4-(phenylamino)nicotinamido)picolinate]	≤ 1		
CCNC(=O)Nc1cc(Nc2ccccc2)c(C(=O)Nc2ccc(-n3cncn3)nc2)cn1 [Compound 27, N-(6-(1H-1,2,4-triazol-1-yl)pyridin-3-yl)-6-(3-ethylureido)-4-(phenylamino)nicotinamide]	≤ 1		
CCNC(=O)Nc1cc(Nc2ccccc2)c(C(=O)Nc2ccc(C)nc2)cn1 [Compound 81, 6-(3-ethylureido)-N-(6-methylpyridin-3-yl)-4-(phenylamino)nicotinamide]		≤ 1	≤ 1
CCNC(=O)Nc1cc(Nc2ccccc2)c(C(=O)Nc2ccc(Oc3ccc(F)cc3)nc2)cn1 [Compound 82]		2 (≈ 4.11 µM)	8 (≈ 16.4 µM)
CCNC(=O)Nc1cc(Nc2ccccc2)c(C(=O)Nc2cncc(F)c2)cn1 [Compound 85, 6-(3-ethylureido)-N-(5-fluoropyridin-3-yl)-4-(phenylamino)nicotinamide]		≤ 1	≤ 1
CCNC(=O)Nc1cc(Nc2ccccc2)c(C(=O)Nc2cc(C(=O)OC)n(C)c2)cn1 [Compound 86, methyl 4-(6-(3-ethylureido)-4-(phenylamino)nicotinamido)-1-methyl-1H-pyrrole-2-carboxylate]		≤ 1	≤ 1
CCNC(=O)Nc1cc(Nc2ccccc2)c(C(=O)Nc2cnc3c(c2)ncn3C)cn1 [Compound 88, 6-(3-ethylureido)-N-(3-methyl-3H-imidazo[4,5-b]pyridin-6-yl)-4-(phenylamino)nicotinamide]		2 (≈ 4.65 µM)	≤ 1
CCNC(=O)Nc1cc(Nc2ccccc2)c(C(=O)Nc2cncc(C(=O)OC)c2)cn1 [Compound 89, methyl 5-(6-(3-ethylureido)-4-(phenylamino)nicotinamido)nicotinate]		≤ 1	8 (≈ 18.4 µM)
CCNC(=O)Nc1cc(Nc2ccccc2)c(C(=O)Nc2cncc(C)c2)cn1 [Compound 91, 6-(3-ethylureido)-N-(5-methylpyridin-3-yl)-4-(phenylamino)nicotinamide]		≤ 1	≤ 1
CCNC(=O)Nc1cc(Nc2ccccc2)c(C(=O)Nc2cc(C)cc(F)c2)cn1 [Compound 93, 6-(3-ethylureido)-N-(3-fluoro-5-methylphenyl)-4-(phenylamino)nicotinamide]		≤ 1	2 (≈ 4.91 µM)
CCNC(=O)Nc1cc(Nc2ccccc2)c(C(=O)Nc2ccc(NC(C)C)nc2)cn1 [Compound 95, 6-(3-ethylureido)-N-(6-(isopropylamino)pyridin-3-yl)-4-(phenylamino)nicotinamide]		2 (≈ 4.61 µM)	≤ 1
CCNC(=O)Nc1cc(Nc2ccc(C(=O)OC)cc2)c(C(=O)Nc2cccnc2)cn1 [Compound 96, methyl 4-(2-(3-ethylureido)-5-(pyridin-3-ylcarbamoyl)pyridin-4-ylamino)benzoate]		≤ 1	≤ 1
CCNC(=O)Nc1cc(Nc2cccc(C(=O)OC)c2)c(C(=O)Nc2cccnc2)cn1 [Compound 97, methyl 3-(2-(3-ethylureido)-5-(pyridin-3-ylcarbamoyl)pyridin-4-ylamino)benzoate]		2 (≈ 4.6 µM)	32 (≈ 73.7 µM)
CCNC(=O)Nc1cc(Nc2ccccc2)c(C(=O)Nc2ccc(N(C)C)nc2)cn1 [Compound 98, N-(6-(dimethylamino)pyridin-3-yl)-6-(3-ethylureido)-4-(phenylamino)nicotinamide]		≤ 1	≤ 1
CCNC(=O)Nc1cc(Nc2ccccc2)c(C(=O)Nc2ccc(=O)n(C)c2)cn1 [Compound 99, 6-(3-ethylureido)-N-(1-methyl-6-oxo-1,6-dihydropyridin-3-yl)-4-(phenylamino)nicotinamide]		16 (≈ 39.4 µM)	≤ 1
CCNC(=O)Nc1cc(Nc2ccccc2)c(C(=O)Nc2ccc(N3CCC(O)CC3)nc2)cn1 [Compound 100, 6-(3-ethylureido)-N-(6-(4-hydroxypiperidin-1-yl)pyridin-3-yl)-4-(phenylamino)nicotinamide]		2 (≈ 4.21 µM)	≤ 1
CCNC(=O)Nc1cc(Nc2ccccc2)c(C(=O)Nc2ccc(C#N)nc2)cn1 [Compound 104, N-(6-cyanopyridin-3-yl)-6-(3-ethylureido)-4-(phenylamino)nicotinamide]		2 (≈ 4.98 µM)	≤ 1
CCNC(=O)Nc1cc(Nc2ccccc2Cl)c(C(=O)Nc2cccnc2)cn1 [Compound 105, 4-(2-chlorophenylamino)-6-(3-ethylureido)-N-(pyridin-3-yl)nicotinamide]		≤ 1	≤ 1

Structure (SMILES)	MIC (E. faecalis (ATCC 29212)) [µg/mL]	MIC (S. aureus (ATCC 29213)) [µg/mL]	MIC (S. pyogenes (ATCC 51339)) [µg/mL]
CCNC(=O)Nc1cc(Nc2ccc(Cl)cc2)c(C(=O)Nc2cccnc2)cn1 [Compound 106, 4-(4-chlorophenylamino)-6-(3-ethylureido)-N-(pyridin-3-yl)nicotinamide]		≤ 1	≤ 1
CCNC(=O)Nc1cc(Nc2cccc(Cl)c2)c(C(=O)Nc2cccnc2)cn1 [Compound 107, 4-(3-chlorophenylamino)-6-(3-ethylureido)-N-(pyridin-3-yl)nicotinamide]		≤ 1	2 (≈ 4.87 µM)
CCNC(=O)Nc1cc(Nc2ccccc2OC)c(C(=O)Nc2cccnc2)cn1 [Compound 109, 6-(3-ethylureido)-4-(2-methoxyphenylamino)-N-(pyridin-3-yl)nicotinamide]		2 (≈ 4.92 µM)	≤ 1
CCNC(=O)Nc1cc(Nc2ccc(CC(=O)OCC)cc2)c(C(=O)Nc2cccnc2)cn1 [Compound 110, ethyl 2-(4-(2-(3-ethylureido)-5-(pyridin-3-ylcarbamoyl)pyridin-4-ylamino)phenyl)acetate]		4 (≈ 8.65 µM)	4 (≈ 8.65 µM)
CCNC(=O)Nc1cc(Nc2cccc(OC)c2)c(C(=O)Nc2cccnc2)cn1 [Compound 111, 6-(3-ethylureido)-4-(3-methoxyphenylamino)-N-(pyridin-3-yl)nicotinamide]		≤ 1	≤ 1
CCNC(=O)Nc1cc(Nc2cnn(C)c2)c(C(=O)Nc2cccnc2)cn1 [Compound 113, 6-(3-ethylureido)-4-(1-methyl-1H-pyrazol-4-ylamino)-N-(pyridin-3-yl)nicotinamide]		32 (≈ 84.1 µM)	4 (≈ 10.5 µM)
CCNC(=O)Nc1cc(Nc2c(C)noc2C)c(C(=O)Nc2cccnc2)cn1 [Compound 115, 4-(3,5-dimethylisoxazol-4-ylamino)-6-(3-ethylureido)-N-(pyridin-3-yl)nicotinamide]		32 (≈ 80.9 µM)	8 (≈ 20.2 µM)
CCNC(=O)Nc1cc(Nc2ccn(C)n2)c(C(=O)Nc2cccnc2)cn1 [Compound 116, 6-(3-ethylureido)-4-(1-methyl-1H-pyrazol-3-ylamino)-N-(pyridin-3-yl)nicotinamide]		4 (≈ 10.5 µM)	≤ 1
CCNC(=O)Nc1cc(Nc2ccccc2)c(C(=O)Nc2ccc(CCCO)cc2)cn1 [Compound 117, 6-(3-ethylureido)-N-(4-(3-hydroxypropyl)phenyl)-4-(phenylamino)nicotinamide]		≤ 1	≤ 1
CCNC(=O)Nc1cc(Nc2ccccc2)c(C(=O)Nc2ccc(CCC(N)=O)cc2)cn1 [Compound 118, N-(4-(3-amino-3-oxopropyl)phenyl)-6-(3-ethylureido)-4-(phenylamino)nicotinamide]		2 (≈ 4.48 µM)	≤ 1
CCNC(=O)Nc1cc(Nc2ccccc2)c(C(=O)Nc2ccc(CCC(=O)N(C)C)cc2)cn1 [Compound 119, N-(4-(3-(dimethylamino)-3-oxopropyl)phenyl)-6-(3-ethylureido)-4-(phenylamino)nicotinamide]		≤ 1	≤ 1
CCNC(=O)Nc1cc(Nc2ccccc2)c(C(=O)Nc2ccc(CCC(=O)NC)cc2)cn1 [Compound 120, 6-(3-ethylureido)-N-(4-(3-(methylamino)-3-oxopropyl)phenyl)-4-(phenylamino)nicotinamide]		2 (≈ 4.34 µM)	≤ 1
CCNC(=O)Nc1cc(Nc2ccccc2)c(C(=O)Nc2ccc(CCC(C)=O)cc2)cn1 [Compound 122, 6-(3-Ethylureido)-N-(4-(3-oxobutyl)phenyl)-4-(phenylamino)nicotinamide]		≤ 1	≤ 1
CCNC(=O)Nc1cc(Nc2ccc(CO)cc2)c(C(=O)Nc2cccnc2)cn1 [Compound 128, 6-(3-ethylureido)-4-(4-(hydroxymethyl)phenylamino)-N-(pyridin-3-yl)nicotinamide]		8 (≈ 19.7 µM)	≤ 1
CCNC(=O)Nc1cc(Nc2ccccc2)c(C(=O)Nc2ccc(CC(C)(C)C(=O)OC)cc2)cn1 [Compound 129]		2 (≈ 4.09 µM)	≤ 1
CCNC(=O)Nc1cc(Nc2ccc(CCC(=O)OCC)cc2)c(C(=O)Nc2cccnc2)cn1 [Compound 131, ethyl 3-(4-(2-(3-ethylureido)-5-(pyridin-3-ylcarbamoyl)pyridin-4-ylamino)phenyl)propanoate]		8 (≈ 16.8 µM)	4 (≈ 8.39 µM)
CCNC(=O)Nc1cc(Nc2ccc(Cl)cc2)c(C(=O)Nc2ccc(-n3cccc3C(=O)OC)cc2)cn1 [Compound 197, methyl 1-{4-[({4-[(4-chlorophenyl)amino]-6-[(ethylcarbamoyl)amino]pyridin-3-yl}carbonyl)amino]phenyl}-1H-pyrrole-2-carboxylate]	4 (≈ 7.5 µM)		

Reference: patent US9060515B2, “Heterocyclic urea compounds” (BIOTA EUROPE LTD, priority 2011, dated 2015)
